{"source": "the supplement of paper PMC10307832", "experiment_in_all_cases": "relative viability (nuclei count vs DMSO), 5 days (fraction); higher = more cells survive", "key": {"[1]": {"system": "NCI-H2126", "summary_of_the_method": "(§1)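 After 5 days of treatment, lung cancer cells in 1536-well plates were fixed and stained in a single step (final 0.05% Triton X-100, 1% formaldehyde, 1 ug/ml Hoechst) and their nuclei counted on 4× images. Treatment had been applied by pin tool the day after seeding as one drug alone or as a fixed anchor-drug dose with five library-drug doses (not always all listed) in √10 steps. Relative viability is the nuclei count of treated wells divided by that of vehicle wells, and values are medians of duplicate plates.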"}, "[2]": {"system": "NCI-H23", "summary_of_the_method": "as §1"}, "[3]": {"system": "HARA", "summary_of_the_method": "as §1"}, "[4]": {"system": "NCI-H522", "summary_of_the_method": "as §1"}, "[5]": {"system": "NCI-H838", "summary_of_the_method": "as §1"}, "[6]": {"system": "NCI-H650", "summary_of_the_method": "as §1"}, "[7]": {"system": "NCI-H1993", "summary_of_the_method": "as §1"}, "[8]": {"system": "LCLC-103H", "summary_of_the_method": "as §1"}, "[9]": {"system": "HCC-44", "summary_of_the_method": "as §1"}, "[10]": {"system": "EMC-BAC-2", "summary_of_the_method": "as §1"}, "[11]": {"system": "NCI-H2023", "summary_of_the_method": "as §1"}, "[12]": {"system": "NCI-H3122", "summary_of_the_method": "as §1"}, "[13]": {"system": "NCI-H1395", "summary_of_the_method": "as §1"}, "[14]": {"system": "NCI-H441", "summary_of_the_method": "as §1"}, "[15]": {"system": "NCI-H2347", "summary_of_the_method": "as §1"}, "[16]": {"system": "NCI-H596", "summary_of_the_method": "as §1"}, "[17]": {"system": "NCI-H2087", "summary_of_the_method": "as §1"}, "[18]": {"system": "LOU-NH91", "summary_of_the_method": "as §1"}, "[19]": {"system": "NCI-H647", "summary_of_the_method": "as §1"}, "[20]": {"system": "BEN", "summary_of_the_method": "as §1"}, "[21]": {"system": "201T", "summary_of_the_method": "as §1"}}, "data": [{"smiles": "Nc1ccn([C@@H]2O[C@H](CO)[C@@H](O)[C@@H]2O)c(=O)n1", "note": "[Cytarabine] + Nc1nc2[nH]cc(CCc3ccc(C(=O)N[C@@H](CCC(=O)O)C(=O)O)cc3)c2c(=O)[nH]1 [Pemetrexed] (partner 0.2 µM)", "values": [{"measurement": "relative viability", "setting": "[1]; first compound 0.005 µM", "value": 0.76}, {"measurement": "relative viability", "setting": "[1]; first compound 0.01581 µM", "value": 0.775}, {"measurement": "relative viability", "setting": "[1]; first compound 0.05 µM", "value": 0.525}, {"measurement": "relative viability", "setting": "[1]; first compound 0.1581 µM", "value": 0.549}, {"measurement": "relative viability", "setting": "[1]; first compound 0.5 µM", "value": 0.46}, {"measurement": "relative viability", "setting": "[2]; first compound 0.005 µM", "value": 0.611}, {"measurement": "relative viability", "setting": "[2]; first compound 0.01581 µM", "value": 0.527}, {"measurement": "relative viability", "setting": "[2]; first compound 0.05 µM", "value": 0.445}, {"measurement": "relative viability", "setting": "[2]; first compound 0.1581 µM", "value": 0.172}, {"measurement": "relative viability", "setting": "[2]; first compound 0.5 µM", "value": 0.159}, {"measurement": "relative viability", "setting": "[3]; first compound 0.005 µM", "value": 0.243}, {"measurement": "relative viability", "setting": "[3]; first compound 0.01581 µM", "value": 0.221}, {"measurement": "relative viability", "setting": "[3]; first compound 0.05 µM", "value": 0.217}, {"measurement": "relative viability", "setting": "[3]; first compound 0.1581 µM", "value": 0.171}, {"measurement": "relative viability", "setting": "[3]; first compound 0.5 µM", "value": 0.153}, {"measurement": "relative viability", "setting": "[4]; first compound 0.005 µM", "value": 0.942}, {"measurement": "relative viability", "setting": "[4]; first compound 0.01581 µM", "value": 0.846}, {"measurement": "relative viability", "setting": "[4]; first compound 0.05 µM", "value": 0.631}, {"measurement": "relative viability", "setting": "[4]; first compound 0.1581 µM", "value": 0.578}, {"measurement": "relative viability", "setting": "[4]; first compound 0.5 µM", "value": 0.455}, {"measurement": "relative viability", "setting": "[5]; first compound 0.005 µM", "value": 0.243}, {"measurement": "relative viability", "setting": "[5]; first compound 0.01581 µM", "value": 0.235}, {"measurement": "relative viability", "setting": "[5]; first compound 0.05 µM", "value": 0.272}, {"measurement": "relative viability", "setting": "[5]; first compound 0.1581 µM", "value": 0.216}, {"measurement": "relative viability", "setting": "[5]; first compound 0.5 µM", "value": 0.213}, {"measurement": "relative viability", "setting": "[6]; first compound 0.005 µM", "value": 0.809}, {"measurement": "relative viability", "setting": "[6]; first compound 0.01581 µM", "value": 0.581}, {"measurement": "relative viability", "setting": "[6]; first compound 0.05 µM", "value": 0.283}, {"measurement": "relative viability", "setting": "[6]; first compound 0.1581 µM", "value": 0.171}, {"measurement": "relative viability", "setting": "[6]; first compound 0.5 µM", "value": 0.157}, {"measurement": "relative viability", "setting": "[7]; first compound 0.005 µM", "value": 0.682}, {"measurement": "relative viability", "setting": "[7]; first compound 0.01581 µM", "value": 0.548}, {"measurement": "relative viability", "setting": "[7]; first compound 0.05 µM", "value": 0.299}, {"measurement": "relative viability", "setting": "[7]; first compound 0.1581 µM", "value": 0.448}, {"measurement": "relative viability", "setting": "[7]; first compound 0.5 µM", "value": 0.471}, {"measurement": "relative viability", "setting": "[8]; first compound 0.005 µM", "value": 0.458}, {"measurement": "relative viability", "setting": "[8]; first compound 0.01581 µM", "value": 0.467}, {"measurement": "relative viability", "setting": "[8]; first compound 0.05 µM", "value": 0.497}, {"measurement": "relative viability", "setting": "[8]; first compound 0.1581 µM", "value": 0.422}, {"measurement": "relative viability", "setting": "[8]; first compound 0.5 µM", "value": 0.456}, {"measurement": "relative viability", "setting": "[9]; first compound 0.005 µM", "value": 0.717}, {"measurement": "relative viability", "setting": "[9]; first compound 0.01581 µM", "value": 0.629}, {"measurement": "relative viability", "setting": "[9]; first compound 0.05 µM", "value": 0.67}, {"measurement": "relative viability", "setting": "[9]; first compound 0.1581 µM", "value": 0.751}, {"measurement": "relative viability", "setting": "[9]; first compound 0.5 µM", "value": 0.774}, {"measurement": "relative viability", "setting": "[10]; first compound 0.005 µM", "value": 0.476}, {"measurement": "relative viability", "setting": "[10]; first compound 0.01581 µM", "value": 0.446}, {"measurement": "relative viability", "setting": "[10]; first compound 0.05 µM", "value": 0.31}, {"measurement": "relative viability", "setting": "[10]; first compound 0.1581 µM", "value": 0.244}, {"measurement": "relative viability", "setting": "[10]; first compound 0.5 µM", "value": 0.247}, {"measurement": "relative viability", "setting": "[11]; first compound 0.005 µM", "value": 0.193}, {"measurement": "relative viability", "setting": "[11]; first compound 0.01581 µM", "value": 0.126}, {"measurement": "relative viability", "setting": "[11]; first compound 0.05 µM", "value": 0.105}, {"measurement": "relative viability", "setting": "[11]; first compound 0.1581 µM", "value": 0.0804}, {"measurement": "relative viability", "setting": "[11]; first compound 0.5 µM", "value": 0.0895}, {"measurement": "relative viability", "setting": "[12]; first compound 0.005 µM", "value": 0.207}, {"measurement": "relative viability", "setting": "[12]; first compound 0.01581 µM", "value": 0.196}, {"measurement": "relative viability", "setting": "[12]; first compound 0.05 µM", "value": 0.227}, {"measurement": "relative viability", "setting": "[12]; first compound 0.1581 µM", "value": 0.381}, {"measurement": "relative viability", "setting": "[12]; first compound 0.5 µM", "value": 0.156}, {"measurement": "relative viability", "setting": "[13]; first compound 0.005 µM", "value": 0.798}, {"measurement": "relative viability", "setting": "[13]; first compound 0.01581 µM", "value": 0.566}, {"measurement": "relative viability", "setting": "[13]; first compound 0.05 µM", "value": 0.638}, {"measurement": "relative viability", "setting": "[13]; first compound 0.1581 µM", "value": 0.361}, {"measurement": "relative viability", "setting": "[13]; first compound 0.5 µM", "value": 0.326}, {"measurement": "relative viability", "setting": "[14]; first compound 0.005 µM", "value": 0.273}, {"measurement": "relative viability", "setting": "[14]; first compound 0.01581 µM", "value": 0.251}, {"measurement": "relative viability", "setting": "[14]; first compound 0.05 µM", "value": 0.331}, {"measurement": "relative viability", "setting": "[14]; first compound 0.1581 µM", "value": 0.226}, {"measurement": "relative viability", "setting": "[14]; first compound 0.5 µM", "value": 0.144}, {"measurement": "relative viability", "setting": "[15]; first compound 0.005 µM", "value": 0.392}, {"measurement": "relative viability", "setting": "[15]; first compound 0.01581 µM", "value": 0.522}, {"measurement": "relative viability", "setting": "[15]; first compound 0.05 µM", "value": 0.439}, {"measurement": "relative viability", "setting": "[15]; first compound 0.1581 µM", "value": 0.44}, {"measurement": "relative viability", "setting": "[15]; first compound 0.5 µM", "value": 0.391}, {"measurement": "relative viability", "setting": "[16]; first compound 0.005 µM", "value": 0.41}, {"measurement": "relative viability", "setting": "[16]; first compound 0.01581 µM", "value": 0.485}, {"measurement": "relative viability", "setting": "[16]; first compound 0.05 µM", "value": 0.472}, {"measurement": "relative viability", "setting": "[16]; first compound 0.1581 µM", "value": 0.379}, {"measurement": "relative viability", "setting": "[16]; first compound 0.5 µM", "value": 0.349}, {"measurement": "relative viability", "setting": "[17]; first compound 0.005 µM", "value": 0.631}, {"measurement": "relative viability", "setting": "[17]; first compound 0.01581 µM", "value": 0.616}, {"measurement": "relative viability", "setting": "[17]; first compound 0.05 µM", "value": 0.647}, {"measurement": "relative viability", "setting": "[17]; first compound 0.1581 µM", "value": 0.57}, {"measurement": "relative viability", "setting": "[17]; first compound 0.5 µM", "value": 0.283}, {"measurement": "relative viability", "setting": "[18]; first compound 0.005 µM", "value": 0.383}, {"measurement": "relative viability", "setting": "[18]; first compound 0.01581 µM", "value": 0.395}, {"measurement": "relative viability", "setting": "[18]; first compound 0.05 µM", "value": 0.379}, {"measurement": "relative viability", "setting": "[18]; first compound 0.1581 µM", "value": 0.318}, {"measurement": "relative viability", "setting": "[18]; first compound 0.5 µM", "value": 0.339}, {"measurement": "relative viability", "setting": "[19]; first compound 0.005 µM", "value": 0.185}, {"measurement": "relative viability", "setting": "[19]; first compound 0.01581 µM", "value": 0.174}, {"measurement": "relative viability", "setting": "[19]; first compound 0.05 µM", "value": 0.0984}, {"measurement": "relative viability", "setting": "[19]; first compound 0.1581 µM", "value": 0.0797}, {"measurement": "relative viability", "setting": "[19]; first compound 0.5 µM", "value": 0.0683}, {"measurement": "relative viability", "setting": "[20]; first compound 0.005 µM", "value": 0.632}, {"measurement": "relative viability", "setting": "[20]; first compound 0.01581 µM", "value": 0.512}, {"measurement": "relative viability", "setting": "[20]; first compound 0.05 µM", "value": 0.383}, {"measurement": "relative viability", "setting": "[20]; first compound 0.1581 µM", "value": 0.366}, {"measurement": "relative viability", "setting": "[20]; first compound 0.5 µM", "value": 0.287}, {"measurement": "relative viability", "setting": "[21]; first compound 0.005 µM", "value": 0.361}, {"measurement": "relative viability", "setting": "[21]; first compound 0.01581 µM", "value": 0.353}, {"measurement": "relative viability", "setting": "[21]; first compound 0.05 µM", "value": 0.309}, {"measurement": "relative viability", "setting": "[21]; first compound 0.1581 µM", "value": 0.325}, {"measurement": "relative viability", "setting": "[21]; first compound 0.5 µM", "value": 0.25}]}]}
